Consider 3 compounds from ChEMBL document CHEMBL4627280, “Discovery of disubstituted xylylene derivatives as small molecule direct inhibitors of Keap1-Nrf2 protein-protein interaction” (Bioorg Med Chem, 2020).

The nature of data set [1]: Metabolic stability in human liver microsomes assessed as parent compound remaining at 0.1 mM measured after 90 mins by LC/MS analysis. Format: ADME, Microsome. To be noted: read-out: Stability. On the technique in general: Liver microsomes are vesicles of endoplasmic reticulum, rich in cytochrome P450 enzymes.
Data set [2] deals with Kelch-like ECH-associated protein 1 (Homo sapiens, UniProt Q14145). Description: Inhibition of FITC-LDEETGEFL-NH2 binding to recombinant human Keap1 Kelch domain (321 to 609 residues) expressed in Escherichia Coli BL21(DE3)pLysS cells centrifuged for 2 mins followed by 30 mins incubation under shaking condition by fluorescence polarization assay. Background: Fluorescence polarisation rises when a labelled molecule tumbles more slowly, as on binding a larger partner.
Sequence of Kelch-like ECH-associated protein 1 (Q14145 whole entry, the tested form may be a part): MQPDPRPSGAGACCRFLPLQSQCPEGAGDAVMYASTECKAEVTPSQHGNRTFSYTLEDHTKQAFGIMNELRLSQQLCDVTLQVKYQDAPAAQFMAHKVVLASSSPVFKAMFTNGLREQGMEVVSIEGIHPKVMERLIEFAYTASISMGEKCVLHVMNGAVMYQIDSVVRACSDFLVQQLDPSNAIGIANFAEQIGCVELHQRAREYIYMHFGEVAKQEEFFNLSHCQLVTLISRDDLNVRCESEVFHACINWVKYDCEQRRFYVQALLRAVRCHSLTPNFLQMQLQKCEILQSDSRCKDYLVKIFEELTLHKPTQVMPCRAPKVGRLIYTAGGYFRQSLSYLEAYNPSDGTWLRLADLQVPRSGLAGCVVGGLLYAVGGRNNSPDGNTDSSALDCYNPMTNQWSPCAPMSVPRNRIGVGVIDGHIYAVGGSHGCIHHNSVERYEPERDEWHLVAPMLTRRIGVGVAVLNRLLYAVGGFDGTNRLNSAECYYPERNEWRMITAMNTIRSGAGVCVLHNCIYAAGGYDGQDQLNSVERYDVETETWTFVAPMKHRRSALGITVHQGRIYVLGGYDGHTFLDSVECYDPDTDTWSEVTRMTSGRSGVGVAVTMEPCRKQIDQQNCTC

Take `COc1ccc(S(=O)(=O)N(Cc2ccccc2CN([C@@H](C)C(=O)O)S(=O)(=O)c2ccc(OC)cc2)[C@@H](C)C(=O)O)cc1`: the remaining at 1.5 h, 100 µM in data set [1] stood at 98.2%.
A word on the IC50: it is the concentration that inhibits the measured activity by half. As to `COc1ccc(S(=O)(=O)N(CC(=O)O)Cc2ccccc2CN(CC(=O)O)S(=O)(=O)c2ccc(OC)cc2)cc1`, in data set [2], the IC50 was found to be 2300 nM. For the same compound, in data set [1], the remaining at 1.5 h, 100 µM is 97.7%.
With `COc1ccc(S(=O)(=O)N(CC(=O)O)c2ccc(N(CC(=O)O)S(=O)(=O)c3ccc(OC)cc3)c3ccccc23)cc1`, in data set [1], the remaining at 1.5 h, 100 µM worked out at 56.9%.
